Laboratory results: paper PMC11256326, “Discovery of Heparin Mimetic, Potent, and Selective Inhibitors of Human Clotting Factor XIIIa” (ACS Omega, 2024)

Columns and labels:
[1] = target: T1, FXIIIa (Homo sapiens, UniProt P00488); assay: FXIIIa-mediated fibrin(ogen) polymerization by SDS-PAGE; format: biochemical; details: for effect on FXIIIa-mediated fibrin(ogen) polymerization / γ–γ dimer formation: 5–3000 μM (13), 5–2000 μM (16)
T1 construct: purchased Haematologic Technologies; host or cells: human plasma
T1 sequence (P00488 39-732 limits assumed): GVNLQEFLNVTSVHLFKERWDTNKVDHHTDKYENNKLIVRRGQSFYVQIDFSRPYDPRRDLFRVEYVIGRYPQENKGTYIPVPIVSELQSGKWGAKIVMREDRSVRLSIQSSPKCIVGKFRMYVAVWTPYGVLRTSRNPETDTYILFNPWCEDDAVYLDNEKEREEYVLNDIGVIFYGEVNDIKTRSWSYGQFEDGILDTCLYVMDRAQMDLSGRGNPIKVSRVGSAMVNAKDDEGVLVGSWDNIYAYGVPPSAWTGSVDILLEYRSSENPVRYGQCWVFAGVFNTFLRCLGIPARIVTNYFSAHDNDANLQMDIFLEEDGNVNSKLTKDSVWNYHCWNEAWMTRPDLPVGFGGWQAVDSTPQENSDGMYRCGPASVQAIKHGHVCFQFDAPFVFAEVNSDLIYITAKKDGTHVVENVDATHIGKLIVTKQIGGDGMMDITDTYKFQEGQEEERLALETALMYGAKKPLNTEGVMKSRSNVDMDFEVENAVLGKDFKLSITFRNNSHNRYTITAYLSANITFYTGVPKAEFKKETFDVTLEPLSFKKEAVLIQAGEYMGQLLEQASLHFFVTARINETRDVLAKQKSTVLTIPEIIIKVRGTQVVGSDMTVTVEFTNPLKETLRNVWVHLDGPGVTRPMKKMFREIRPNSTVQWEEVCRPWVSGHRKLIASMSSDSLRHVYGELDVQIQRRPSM
Experimental: The effect of inhibitors 13 and 16 on FXIIIa-mediated fibrin(ogen) polymerization was investigated by sodium dodecyl sulfate-polyacrylamide gel electrophoresis (SDS-PAGE), as reported earlier.[36],[49] A solution containing 13 mg/mL fibrinogen and 2.0 μg/mL FXIIIa in Tris-HCl buffer of pH 7.4 containing 10 mM CaCl2 was either incubated with different concentrations of inhibitors 13 (5, 50, 500, 1000, 2000, and 3000 μM) or 16 (5, 50, 500, 1000, 1500, and 2000 μM) or buffer. The resulting mixture was then clotted in the presence of human α-thrombin (2.5 μg/mL). The clots were incubated for 24 h at room temperature before the addition of denaturing buffer and then incubated overnight at 25 °C. Samples were boiled in a water bath for 10 min before centrifugation at 12 000g at 20 °C for 3 min; the supernatants were examined by SDS-PAGE on homogeneous 10% cross-linked gels and stained with Coomassie Brilliant Blue. The first lane contains the protein markers, whereas the second lane contains the cross-linked fibrin(ogen) formed in the presence of human α-thrombin (Figure 7). […] In both cases, the inhibition appears to achieve 100% efficacy similar to the inhibition assay results.
The impact of inhibitors 13 and 16 on FXIIIa-mediated fibrin polymerization was further explored via gel electrophoresis, as previously described.[36],[49] […] The resulting clots were incubated for 24 h at room temperature before the addition of denaturing buffer containing 25 mM NaH2PO4, 1.9% (w/v) SDS, 5.7 M urea, and 1.9% (w/v) DTT, followed by overnight incubation at room temperature. Subsequently, the samples were boiled in a water bath for 10 min, followed by centrifugation at 12,000g at 20 °C for 3 min; the supernatants were then analyzed by SDS-PAGE on homogeneous 10% cross-linked gels and stained with Coomassie Brilliant Blue.

[2] = test system: HEK-293 human embryonic kidney cells; assay: cell viability, Alamar Blue, HEK-293; format: cell-based; details: HEK-293, 10 μM, 3 days
Experimental: To further evaluate the selectivity as well as the potential toxicity of inhibitors, we studied their effects on the clotting times of normal human plasma as well as their effects on the proliferation of three cell lines. On the one hand, the inhibitors’ effects on activated partial thromboplastin time (APTT) and prothrombin time (PT) were measured, as described earlier under in vitro conditions,[52]−[55] using variable concentrations (0–2000 μM) (Table 3). […] On the other hand, the antiproliferative properties of inhibitors 13 and 16 were evaluated in three cell lines of breast (MCF-7), intestine (CaCo-2), and kidney (HEK-293) (Figure 5B), as described earlier.[56] […] Overall, inhibitor 16 can be considered for further development as a potent, selective, and nontoxic inhibitor of human FXIIIa.
HEK-293 human embryonic kidney cells,[66] CaCo-2 heterogeneous human epithelial colorectal adenocarcinoma cells,[67] and MCF-7 human breast carcinoma cells[68] were treated as reported previously.[69],[70] […] Subsequently, fluorescence readings (λEx. = 560 nm and λEm. = 590 nm) were taken using the Synergy H1 multiplate reader (BioTek) to quantify cell numbers both in the absence (utilizing distilled water as a control) and the presence of inhibitors 13 and 16 (at a concentration of 10 μM; incubated for 3 days). […]

Compound	efficacy of inhibition of fibrin(ogen) polymerization [1] [%]	effect on FXIIIa-mediated fibrin(ogen) polymerization / γ–γ dimer formation [1]	effect on proliferation / cell viability [2]
Nc1c(S(=O)(=O)O)cc(Nc2ccc(Nc3nc(Cl)nc(Nc4ccccc4S(=O)(=O)O)n3)c(S(=O)(=O)O)c2)c2c1C(=O)c1ccccc1C2=O [compound 13]	~100	concentration-dependently inhibited	does not significantly affect the proliferation
Nc1c(/N=N/c2ccc(S(=O)(=O)CCOS(=O)(=O)O)cc2)c(S(=O)(=O)O)cc2cc(S(=O)(=O)O)c(/N=N/c3ccc(S(=O)(=O)CCOS(=O)(=O)O)cc3)c(O)c12 [compound 16]	~100	concentration-dependently inhibited	does not significantly affect the proliferation
